Assay [1] has as its system southern root-knot nematode (Meloidogyne incognita). As to the kind of experiment: Meloidogyne incognita test. The class given is in vivo. To be noted: 336 h, application rate 20 ppm, after 14 days, read-out: nematicidal activity (based on gall formation). The protocol:
Meloidoyne incognita—Test
Solvent: 125.0 parts by weight of acetone
To produce a suitable preparation of active compound, 1 part by weight of active compound is mixed with the stated amount of solvent, and the concentrate is diluted with water to the desired concentration.
Vessels are filled with sand, a solution of the active ingredient, a suspension containing eggs and larvae of the southern root-knot nematode (Meloidogyne incognita) and salad seeds. The salad seeds germinate and the seedlings grow. Galls develop in the roots.
After 14 days the nematicidal activity is determined based on the percentage of gall formation. 100% means no galls were found and 0% means the number of galls found on the roots of the treated plants was equal to that in untreated control plants.

Assay [2] has as its system two spotted spidermite (Tetranychus urticae). As to the kind of experiment: Tetranychus urticae spray test OP-resistant. The assay is classed as in vivo. As to conditions: 144 h, application rate 100 g/ha, after 6 days. The protocol:
Tetranychus urticae—Spray Test OP-Resistant
Solvent: 78.0 parts by weight acetone • 1.5 parts by weight dimethylformamide
Emulsifier: alkylarylpolyglycol ether
To produce a suitable preparation of active compound, 1 part by weight of active compound is mixed with the stated amount of solvents and is diluted with water, containing an emulsifier concentration of 1000 ppm, to the desired concentration. Further test concentrations are prepared by dilution with emulsifier containing water.
French bean (Phaseolus vulgaris) leaf disks infected with all instars of the two spotted spidermite (Tetranychus urticae), are sprayed with a preparation of the active ingredient of the desired concentration.
After 6 days mortality in % is determined. 100% means all spider mites have been killed and 0% means none of the spider mites have been killed.

Each structure is given as a SMILES string.

One may read the mortality as the percentage killed.

Consider `C[C@H](NC(=O)c1cc(OC(F)(F)F)cc(C2CC2)c1)c1ncnn1-c1ccccn1` [II-22], for which the pest or weed control at 20 ppm in assay [1] turned out to be 90%. In assay [2], `C[C@H](NC(=O)c1cc(C2CC2)cc(C(F)(F)F)c1)c1ncnn1-c1ccc(C#N)cn1` [II-26] came in with a mortality at 100 g/ha of 90%. For `C[C@H](NC(=O)c1cc(C(F)(F)F)cc(C2(C#N)CC2)c1)c1ncnn1-c1ccc(C#N)cn1` [II-47], the mortality at 100 g/ha in assay [2] was 90%.

The record behind these values is patent US20260206761A1, “HETEROARYL-TRIAZOLE COMPOUNDS AS PESTICIDES” (Bayer Aktiengesellschaft, priority 2019, published 2026).
